Measurements published in patent US20240316023A1, “BENEDIN, PIPERIDINE, 2-BENZHYDRYL-3-HYDROXY-N-METHYL-, HYDROCHLORIDE AND DERIVATIVES THEREOF FOR USE IN TREATING KLEINE-LEVIN SYNDROME” (priority 2021, published 2024).

How the values were obtained:
[1] = molecular target: T1, RXFP3 (h) (agonist radioligand) (Homo sapiens, UniProt Q9NSD7); assay: GPCR Biosensor cAMP Hunter assay, RXFP3; type: cell-based
T1 sequence (Q9NSD7 1-469): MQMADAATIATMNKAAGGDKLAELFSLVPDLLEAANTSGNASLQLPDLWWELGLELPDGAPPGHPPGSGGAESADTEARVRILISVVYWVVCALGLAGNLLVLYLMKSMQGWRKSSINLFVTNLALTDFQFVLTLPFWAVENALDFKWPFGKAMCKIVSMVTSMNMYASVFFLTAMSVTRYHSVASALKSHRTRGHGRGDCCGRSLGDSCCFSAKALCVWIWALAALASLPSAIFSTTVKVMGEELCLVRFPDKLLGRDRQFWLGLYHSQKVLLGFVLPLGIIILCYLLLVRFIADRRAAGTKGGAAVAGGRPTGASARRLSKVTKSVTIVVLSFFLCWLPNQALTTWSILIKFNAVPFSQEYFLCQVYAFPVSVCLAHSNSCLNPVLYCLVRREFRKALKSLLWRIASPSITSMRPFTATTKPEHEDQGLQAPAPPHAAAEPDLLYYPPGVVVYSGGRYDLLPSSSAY
Method: (§1) Benedin is found to weakly bind with RXFP4 and RXFP3 receptors (Study FR095-0024749-Q Eurofins/leadHunter Jun. 25, 2021; unpublished data) (Table 2).
(§2) In these assays' compounds were tested in agonist and antagonist mode with the GPCR Biosensor Assays and match to this design:
(§3) 1. cAMP Hunter cell lines were expanded from freezer stocks according to standard procedures.
(§4) 2. Cells were seeded in a total volume of 20 μL into white walled, 384-well microplates and incubated at 37° C. for the appropriate time prior to testing.
(§5) 3. cAMP modulation was determined using the DiscoverX HitHunter CAMP XS+assay.
(§6) 1. For agonist determination, cells were incubated with sample in the presence of EC80 forskolin to induce response.
(§7) 2. Media was aspirated from cells and replaced with 15 μL 2:1 HBSS/10 mM Hepes: CAMP XS+Ab reagent. […]
(§8) 2. Microplates were read following signal generation with a PerkinElmer Envision™ instrument for chemiluminescent signal detection.
(§9) 5. For Gi agonist mode assays, percentage activity is calculated using the following formula: % Activity=100%×(1−(mean RLU of test sample-mean RLU of MAX control)/(mean RLU of vehicle control−mean RLU of MAX control)).
(§10) 8. For Gi antagonist or negative allosteric mode assays, percentage inhibition is calculated using the following formula: % Inhibition=100%×(mean RLU of test sample−mean RLU of EC80 control)/(mean RLU of forskolin positive control−mean RLU of […]

[2] = molecular target: RXFP4 (h) (agonist radioligand) (Homo sapiens, UniProt Q8TDU9); assay: GPCR Biosensor cAMP Hunter assay, RXFP4; type: cell-based
RXFP4 (h) (agonist radioligand), sequence (Q8TDU9 whole entry): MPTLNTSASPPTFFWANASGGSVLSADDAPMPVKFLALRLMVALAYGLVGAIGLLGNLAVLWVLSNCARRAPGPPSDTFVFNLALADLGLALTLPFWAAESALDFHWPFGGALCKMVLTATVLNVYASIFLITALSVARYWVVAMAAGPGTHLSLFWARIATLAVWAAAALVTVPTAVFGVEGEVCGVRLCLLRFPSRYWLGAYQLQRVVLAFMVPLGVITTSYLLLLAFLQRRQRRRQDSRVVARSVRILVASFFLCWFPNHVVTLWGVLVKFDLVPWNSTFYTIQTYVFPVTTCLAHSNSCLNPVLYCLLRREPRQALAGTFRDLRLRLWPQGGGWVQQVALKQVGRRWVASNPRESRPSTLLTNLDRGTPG
Method: as §1, §2, §3, §4, §5, §6, §7, §8, §9, §10

[3] = 10^−5 M, read-out: % Inhibition at 10^−5M Benedin

Structure (SMILES): CN1CCCC(O)C1C(c1ccccc1)c1ccccc1 (stereo not shown) [Benedin, 2-benzhydryl-3-hydroxy-N-methyl-piperidine]
- % Inhibition at 10^−5M Benedin [1]: weakly bind
- inhibition at 10 µM [1, 3]: 21.4%
- % Inhibition at 10^−5M Benedin [2]: weakly bind
- inhibition at 10 µM [2, 3]: 26.3%
